Tests used:
CDK2/cyclin A = CDK2/cyclin A (Homo sapiens, UniProt P24941); assay: Recombinant protein kinase assay, CDK2/cyclin A; format: biochemical; details: 15 µM ATP
CDK9/cyclin T = target: T1, CDK9/cyclin T (Homo sapiens, UniProt P50750); assay: Recombinant protein kinase assay, CDK9/cyclin T; format: biochemical; details: 15 µM ATP
T1 construct: made in house; host or cells: insect cells

CLK1 = CLK1 (Mus musculus, UniProt P22518); assay: Recombinant protein kinase assay, CLK1; format: biochemical
CLK1, sequence (P22518 whole entry): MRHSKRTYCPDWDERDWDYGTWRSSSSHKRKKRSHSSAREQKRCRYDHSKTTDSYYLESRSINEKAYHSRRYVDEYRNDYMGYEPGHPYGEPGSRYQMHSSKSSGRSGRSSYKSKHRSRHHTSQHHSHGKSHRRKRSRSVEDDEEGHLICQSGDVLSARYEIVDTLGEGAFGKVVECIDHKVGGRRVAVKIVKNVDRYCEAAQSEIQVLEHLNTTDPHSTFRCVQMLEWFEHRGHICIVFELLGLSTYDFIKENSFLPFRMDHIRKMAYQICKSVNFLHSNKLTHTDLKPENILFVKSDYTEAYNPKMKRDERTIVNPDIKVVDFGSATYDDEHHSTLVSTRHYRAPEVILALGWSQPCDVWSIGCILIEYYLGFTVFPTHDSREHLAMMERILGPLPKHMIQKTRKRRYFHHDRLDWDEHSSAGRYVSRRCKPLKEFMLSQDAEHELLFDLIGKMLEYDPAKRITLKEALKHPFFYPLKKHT

[1] = Pharmacokinetics and brain biodistribution of L41 after acute i.p. injection; format: in vivo; details: mouse, ip
Experimental: To investigate the importance of DYRK1A in cognitive deficits shown by transgenic mouse models of DS, we used a series of low molecular weight pharmacological inhibitors, collectively known as leucettines ([Debdab et al., 2011]; [Tahtouh et al., 2012]; T. Tahtouh, unpublished).
re S1. Pharmacokinetics and brain biodistribution of L41 following acute intra-
zoom on the first 8 hours.
Disease Models & Mechanisms • Supplementary information

Tg(Dyrk1a) mice [2] = assay: Y-maze working memory in Tg(Dyrk1a) mice; format: in vivo, mouse; details: L41-treated Tg(Dyrk1a) mice
Tg(Dyrk1a) mice [3] = assay: Place object location (POR) spatial memory in Tg(Dyrk1a) mice; format: in vivo, mouse; details: L41-treated Tg(Dyrk1a) mice
DYRK1A [4] = target: T2, DYRK1A (Mus musculus, UniProt Q61214); assay: Brain DYRK1A catalytic activity after treatment, wt mice; format: in vivo; details: 19 days daily i.p.
T2 construct: DYRK1A was purified from brain extracts by immunoprecipitation; from tissue; host or cells: mouse brain (wt, Tg(Dyrk1a), Ts65Dn)
Experimental: Protein kinase assays to measure the catalytic activity of DYRK1A in the brains of the animals treated with or without drugs were performed as follows: frozen half brains were homogenized in lysis buffer (1.2 ml/half brain) using Precellys® homogenizer tubes. After centrifugation at 2800 g for 2×15 s, 1 mg brain extract was incubated with 2 µg DYRK1A (H00001859 M01, Interchim) or GSK3-β (MBS8508391, Emelca Bioscience, France) antibodies at 4°C for 1 h under gentle rotation. Then, 20 µl protein G agarose beads (Thermo Fisher Scientific, France), previously washed three times with bead buffer (50 mM Tris pH 7.4, 5 mM NaF, 250 mM NaCl, 5 mM EDTA, 5 mM EGTA, 0.1% Nonidet P-40 and protease inhibitor cocktail from Roche, France), were added to the mix and gently rotated at 4°C for 30 min. After a 1 min spin at 10,000 g and removal of the supernatant, the pelleted immune complexes were washed three times with bead buffer, and a last time with Buffer C (60 mM β-glycerophosphate, 30 mM p-nitrophenolphosphate, 25 mM Mops pH 7.2, 5 mM EGTA, 15 mM MgCl2, 2 mM dithiothreitol, 0.1 mM sodium orthovanadate, 1 mM phenylphosphate, protease inhibitor cocktail). DYRK1A or GSK-3 immobilized on beads were assayed in buffer C as described in the Supplementary Materials and Methods with Woodtide ([…]) (1.5 µg/assay) or GSK3-tide ([…]pSED-EEE, where pS stands for phosphorylated serine) as substrates.

Dyrk1a mRNA = assay: Brain Dyrk1a mRNA expression by qPCR after treatment; format: in vivo, mouse; details: 19 days daily i.p., Tg(Dyrk1a), Ts65Dn and wt brains
From the text: To validate the Tg(Dyrk1a) and Ts65Dn models in terms of DYRK1A expression and function, we first verified the expression levels of Dyrk1a mRNA (Fig. 4A) and DYRK1A protein (Fig. 4B) in brains derived from control or L41-treated animals (19 days, daily i.p.). Total mRNAs were extracted from brains and Dyrk1a, Gsk-3b and Rplp0 mRNAs were quantified by quantitative polymerase chain reaction (qPCR) with specific primers. […] We next measured DYRK1A catalytic activities from transgenic and wt brain protein extracts (Fig. 4C). […] As expected, DYRK1A activity was elevated by ∼1.5- to 1.8-fold in transgenic brains compared with wt brains (Fig. 4C).
Fig. 4. Dyrk1a mRNA and DYRK1A protein expression, and catalytic activity in Tg(Dyrk1a) and corresponding wt mice brains, and in Ts65Dn and corresponding wt mice brains. (A) mRNA expression. Total RNA was extracted, purified and reverse transcribed into cDNA. mRNA expression of Dyrk1a, Gsk-3b and reference Rplp0 was quantified by qPCR from the amplification of cDNA with specific primers (one primer annealing to an exon-exon junction). Results are presented as mean±s.e. of four to six measurements and are shown relative to Rplp0 expression, normalized to wt Gsk-3b expression. (B) Protein expression. Total proteins were extracted, resolved by SDS-PAGE and analysed by WB using antibodies directed against DYRK1A, GSK-3α/β and actin (loading control). […]

DYRK1A [5] = assay: Brain DYRK1A protein expression by western blotting after treatment; format: in vivo, mouse; details: 19 days daily i.p., transgenic and wt brains
Experimental: Brains were obtained from mice and snap-frozen until further use. Then tissues were weighed, homogenized and sonicated in 1 ml lysis buffer (60 mM β-glycerophosphate, 15 mM p-nitrophenylphosphate, 25 mM Mops pH 7.2, 15 mM EGTA, 15 mM MgCl2, 2 mM dithiothreitol, 1 mM sodium orthovanadate, 1 mM sodium fluoride, 1 mM phenylphosphate disodium and protease inhibitor cocktail) per g of material. Homogenates were centrifuged for 15 min at 17,000 g and 4°C. The supernatant was recovered and assayed for protein content (Bio-Rad, France). The proteins were separated by 10% NuPAGE pre-cast Bis-Tris polyacrylamide mini gel electrophoresis (Invitrogen, France) with MOPS-SDS running buffer. Proteins were transferred to 0.45-µm nitrocellulose filters (Schleicher and Schuell, Germany). They were blocked with 5% low-fat milk in Tris-buffered […]/Tween 20, and incubated overnight at 4°C with antibodies. Anti-DYRK1A (H00001859-M01; 1:1000) and anti-GSK-3α/β (KAM-ST002E; 1:1000) were obtained from Interchim (France) and Stressgen (France), respectively. Appropriate secondary antibodies conjugated to horseradish peroxidase (Bio-Rad) were added to visualize the proteins using the enhanced chemiluminescence reaction (ECL, Amersham, France).

Dp1Yey mice = assay: Resting state fMRI brain functional connectivity, Dp1Yey mice; details: L41-treated vs vehicle-treated Dp1Yey mice

T1 sequence (P50750 whole entry): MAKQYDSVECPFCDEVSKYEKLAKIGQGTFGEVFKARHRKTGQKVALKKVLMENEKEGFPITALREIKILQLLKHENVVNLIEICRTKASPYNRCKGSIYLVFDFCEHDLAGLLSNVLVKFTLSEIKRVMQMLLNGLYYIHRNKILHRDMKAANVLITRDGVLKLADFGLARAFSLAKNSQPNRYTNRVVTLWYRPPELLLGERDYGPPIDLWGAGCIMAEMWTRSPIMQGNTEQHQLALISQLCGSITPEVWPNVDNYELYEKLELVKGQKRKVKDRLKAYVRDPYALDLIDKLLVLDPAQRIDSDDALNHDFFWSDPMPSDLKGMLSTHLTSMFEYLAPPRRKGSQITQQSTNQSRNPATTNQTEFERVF
T1 sequence (O60563 whole entry partner): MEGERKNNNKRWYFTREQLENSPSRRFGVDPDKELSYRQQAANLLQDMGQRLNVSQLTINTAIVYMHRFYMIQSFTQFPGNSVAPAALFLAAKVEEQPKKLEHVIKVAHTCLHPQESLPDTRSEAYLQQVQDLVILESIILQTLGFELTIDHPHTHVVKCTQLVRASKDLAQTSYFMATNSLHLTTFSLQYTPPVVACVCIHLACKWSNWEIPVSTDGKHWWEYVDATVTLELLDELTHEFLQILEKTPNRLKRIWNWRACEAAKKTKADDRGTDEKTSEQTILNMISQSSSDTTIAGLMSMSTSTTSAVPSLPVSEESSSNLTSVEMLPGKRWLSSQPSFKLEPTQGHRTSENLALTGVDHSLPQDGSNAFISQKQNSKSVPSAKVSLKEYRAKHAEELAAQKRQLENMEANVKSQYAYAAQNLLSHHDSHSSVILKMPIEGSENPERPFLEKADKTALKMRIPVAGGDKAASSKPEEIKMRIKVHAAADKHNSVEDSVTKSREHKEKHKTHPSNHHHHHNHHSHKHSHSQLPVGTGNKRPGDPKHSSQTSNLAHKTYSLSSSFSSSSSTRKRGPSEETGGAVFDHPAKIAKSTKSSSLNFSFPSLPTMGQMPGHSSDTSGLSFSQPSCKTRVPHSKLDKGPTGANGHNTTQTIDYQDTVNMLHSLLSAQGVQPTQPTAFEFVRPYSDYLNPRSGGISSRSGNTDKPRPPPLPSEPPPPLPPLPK

Structure (SMILES): O=C1NC(Nc2ccccc2)=N/C1=C\c1ccc2c(c1)OCO2 [L41]
- IC50 (CDK2/cyclin A): > 10 µM
- IC50 (CDK9/cyclin T): > 10 µM
- IC50 (CLK1): 23 nM
- half-life ([1]; Tg(Dyrk1a) transgenic and wild-type (wt) mice, plasma): ~45 min
- Blood brain barrier crossing ([1]; in vivo): able to cross the blood brain barrier
- Differences in pharmacokinetics or biodistribution between transgenic and wt mice ([1]; in vivo): No differences
- L41 in brain extracts ([1]; in vivo): essentially undetectable
- Time of maximum brain concentration ([1]; in vivo): 20 min
- Time to elimination from brain after the maximum brain concentration ([1]; in vivo): 2 h
- Effect on working memory (Y-maze) (Tg(Dyrk1a) mice [2]): no restoring effect
- Effect on place memory (place object location) (Tg(Dyrk1a) mice [3]): no restoring effect
- Effect on brain DYRK1A activity (DYRK1A [4]): did not reduce
- Effect on Dyrk1a mRNA levels (Dyrk1a mRNA): did not modify
- Effect on expression of DYRK1A and GSK-3α/β protein (DYRK1A [5]): no effect
- Effect on altered default mode network (DMN) pattern (Dp1Yey mice): rescued

From paper PMC6176987, “Correction of cognitive deficits in mouse models of Down syndrome by a pharmacological inhibitor of DYRK1A” (Disease Models & Mechanisms, 2018)
